The record followed here is patent publication US11608341B2, “Substituted tetrahydropyrazolo[3,4-d]pyrimidines and tetrahydropyrazolo[4,3-d]pyrimidines as C5A receptor modulators” (Idorsia Pharmaceuticals Ltd., priority 2018, dated 2023).

In this assay the target is T1, C5AR1 (Homo sapiens, UniProt P21730).
T1 construct: host or cells: CHO-K1
T1 sequence (P21730 1-350): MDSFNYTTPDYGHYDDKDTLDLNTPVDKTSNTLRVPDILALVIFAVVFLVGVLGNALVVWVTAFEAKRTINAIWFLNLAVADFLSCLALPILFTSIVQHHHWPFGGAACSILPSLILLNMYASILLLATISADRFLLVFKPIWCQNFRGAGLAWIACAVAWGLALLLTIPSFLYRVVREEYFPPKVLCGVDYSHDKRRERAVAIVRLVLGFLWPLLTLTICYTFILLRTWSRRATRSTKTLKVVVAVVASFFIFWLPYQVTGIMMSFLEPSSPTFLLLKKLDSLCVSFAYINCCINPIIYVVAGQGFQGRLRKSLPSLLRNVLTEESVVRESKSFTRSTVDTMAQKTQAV
Put plainly: In vitro assay: antagonism of C5a-induced beta-arrestin recruitment (PathHunter) in CHO-K1 C5AR1 beta-arrestin cell line. To be noted: antagonistic activity, 1-10 nM C5a agonist, geometric mean where several measurements, read-out: C5aR IC50. The format is cell-based. In short, it runs like this:
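Antagonist or DMSO added first, then C5a (1-10 nM, added at 6-fold end concentration), 1.5 h at 37 °C. PathHunter detection reagent was added for 45 min at RT before plate reading. IC50s come from antagonist serial dilutions in nmol/l and are geometric means of several measurements.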
For the compound `CC(c1ccccc1C(F)(F)F)N1C(=O)N(C2CCN(c3c(F)cccc3C#N)CC2)Cc2cn(C)nc21` (single isomer, unassigned) [Example 289], the IC50 came out at 55 nM. Turning to `Cc1cccc(F)c1N1CCC(N2Cc3nn(C4CC4)cc3N(Cc3ccccc3C(F)(F)F)C2=O)CC1` [Example 175], the half-maximal inhibitory concentration (IC50) is 14 nM. To `COc1nccc(C)c1N1CCC(N2Cc3nn(CC4(F)CC4)cc3N(Cc3ccccc3C(F)(F)F)C2=O)CC1` [Example 222] belongs 19 nM; to `Cn1cc2c(n1)N(Cc1ccccc1C(F)(F)F)C(=O)N(C1CCN(c3c(F)cccc3OC(F)(F)F)CC1)C2` [Example 244], 16 nM. To `Cc1cccc(F)c1N1CCC(N2Cc3cn(CCNC4CC4)nc3N(Cc3ccccc3C(F)(F)F)C2=O)CC1` [Example 71] belongs 24 nM.

`CC1c2c[nH]nc2N(Cc2ccccc2C2CC2)C(=O)N1C1CCN(c2c(F)cccc2Cl)CC1` (single isomer, unassigned) [Example 372]: the IC50 came out at 11 nM. `CC(C)c1ccccc1N1CCC(N2Cc3cn(C)nc3N(Cc3ccccc3C(F)(F)F)C2=O)CC1` [Example 257]: the IC50 came to 9 nM.

In the case of `Cc1cccc(F)c1N1CCC(N2C(=O)N(Cc3ccccc3C(F)(F)F)c3cn(CC(C)(F)F)nc3C2C)CC1` (single isomer, unassigned) [Example 254], the IC50 turned out to be 192 nM. The same measure for `COc1nccc(C)c1N1CCC(N2C(=O)N(Cc3ccccc3C3CC3)c3cn(C4CC4)nc3C2C)CC1` (single isomer, unassigned) [Example 293]: 20 nM; for `CC1c2cn(C3CC3)nc2N(Cc2ccccc2C(F)(F)F)C(=O)N1C1CCN(c2c(F)cccc2Cl)CC1` (single isomer, unassigned) [Example 336]: 89 nM; for `Cc1cccc(F)c1N1CCC(N2C(=O)N(Cc3ccccc3C(F)(F)F)c3cn(C4CC4)nc3C2C)CC1` (single isomer, unassigned) [Example 265]: 12 nM.

`CNCCn1cc2c(n1)N(Cc1ccccc1C(F)(F)F)C(=O)N(C1CCN(c3c(C)cccc3F)CC1)C2` [Example 59]: the IC50 was determined as 196 nM.

Regarding `COc1nccc(C)c1N1CCC(N2Cc3cn(C)nc3N(Cc3ccccc3C3CC3)C2=O)CC1` [Example 283], the IC50 worked out at 8 nM.

As for `CC1c2cn(C)nc2N(Cc2ccccc2C2CC2)C(=O)N1C1CCN(c2c(F)cccc2Cl)CC1` (single isomer, unassigned) [Example 322], the IC50 amounted to 3 nM. With `COc1nccc(C)c1N1CCC(N2C(=O)N(Cc3ccccc3C(F)(F)F)c3cn(C4CC4)nc3C2C)CC1` (single isomer, unassigned) [Example 297], the IC50 is 326 nM. Regarding `COc1nccc(C)c1N1CCC(N2Cc3nn(C)nc3N(Cc3ncccc3C(F)(F)F)C2=O)CC1` [Example 146], the IC50 was 32 nM.

`CC1c2cn(C)nc2N(Cc2ccccc2C(F)(F)F)C(=O)N1C1CCN(c2c(F)cccc2C(F)F)CC1` (single isomer, unassigned) [Example 315]: the IC50 was determined as 362 nM.

Regarding `COc1nccc(C)c1N1CCC(N2C(=O)N(Cc3ccccc3C3CC3)c3nn(C4CC4)cc3C2C)CC1` (single isomer, unassigned) [Example 380], the IC50 was found to be 21 nM. As to `Cc1cccc(C)c1N1CCC(N2Cc3cn(C)nc3N(Cc3ccccc3C(F)(F)F)C2=O)C1` (single isomer, unassigned) [Example 58], the IC50 is 238 nM.

For `CC1c2cn(C3CC3)nc2N(Cc2ccccc2C(F)(F)F)C(=O)N1C1CCN(c2c(F)cccc2Br)CC1` (single isomer, unassigned) [Example 361], the IC50 came to 13 nM. To `Cc1cccc(F)c1N1CCC(N2Cc3cn(CC4(C)CC4)nc3N(Cc3ccccc3C(F)(F)F)C2=O)CC1` [Example 158] belongs 11 nM; to `Cc1cccc(F)c1N1CCC(N2C(=O)N(Cc3ccccc3C(F)(F)F)c3cn(C4CCCCO4)nc3C2C)CC1` (centres unmarked) [Example 294], 56 nM. To `COc1nccc(C(F)F)c1N1CCC(N2C(=O)N(Cc3ccccc3C3CC3)c3nn(C4CC4)cc3C2C)CC1` (single isomer, unassigned) [Example 383] belongs 204 nM; to `CC1c2cn(C3CCCCO3)nc2N(Cc2ccccc2C(F)(F)F)C(=O)N1C1CCN(c2c(F)cccc2C(F)F)CC1` (centres unmarked) [Example 341], 31 nM. In the case of `COc1nccc(Cl)c1N1CCC(N2C(=O)N(Cc3ccccc3C(F)(F)F)c3nn(C)cc3C2C)CC1` (single isomer, unassigned) [Example 376], the IC50 was 5 nM. To `CC1c2c[nH]nc2N(Cc2ccccc2C2CC2)C(=O)N1C1CCN(c2c(F)cccc2Cl)CC1` (single isomer, unassigned) [Example 373] belongs 1010 nM; to `COc1nccc(C)c1N1CCC(N2C(=O)N(Cc3ccccc3C(F)(F)F)c3nn(C4CC4)cc3C2C)CC1` (single isomer, unassigned) [Example 344], 8 nM; to `CCn1cc2c(n1)N(Cc1ccccc1C(F)(F)F)C(=O)N(C1CCN(c3c(C)cccc3F)CC1)C2` [Example 169], 8 nM. The same measure for `Cc1cccc(F)c1N1CCC(N2Cc3cn(C)nc3N(C(C)c3ccccc3C(F)(F)F)C2=O)CC1` (single isomer, unassigned) [Example 246]: 21 nM; for `COc1nccc(C)c1N1CCC(N2C(=O)N(Cc3ncccc3C(F)(F)F)c3nn(C)cc3C2C)CC1` (single isomer, unassigned) [Example 357]: 572 nM; for `Cc1cccc(F)c1N1CCC(N2Cc3nn(C)nc3N(Cc3ncccc3C(F)(F)F)C2=O)CC1` [Example 128]: 15 nM. The same measure for `Cc1cccc(F)c1N1CCC(N2Cc3c(cnn3COCC[Si](C)(C)C)N(Cc3ncccc3C(F)(F)F)C2=O)CC1` [Example 230]: 37 nM. As to `Cc1cccc(F)c1N1CCC(N2Cc3cn(C4CCCCC4[N+](=O)[O-])nc3N(Cc3ccccc3C(F)(F)F)C2=O)CC1` (centres unmarked) [Example 82], the IC50 is 119 nM. For the compound `COc1nccc(C)c1N1CCC(N2Cc3nn(C4CC4)cc3N(Cc3ccccc3C(F)(F)F)C2=O)CC1` [Example 223], the IC50 is 32 nM. `Cc1cccc(F)c1N1CCC(N2Cc3nn(C(C)C)cc3N(Cc3ccccc3C(F)(F)F)C2=O)CC1` [Example 191]: the IC50 amounted to 4 nM. With `Cc1cccc(F)c1N1CCC(N2Cc3cn(C)nc3N(Cc3nc(N(C)C)ccc3C(F)(F)F)C2=O)CC1` [Example 50], the IC50 was 85 nM. For the compound `Cc1cccc(F)c1N1CCC(N2Cc3cn(C)nc3N(Cc3ccccc3OC(F)(F)F)C2=O)CC1` [Example 232], the IC50 stood at 16 nM. Regarding `Cc1cccc(F)c1N1CCC(N2C(=O)N(Cc3ccccc3C(F)(F)F)c3cnn(CC(C)(F)F)c3C2C)CC1` (single isomer, unassigned) [Example 255], the IC50 worked out at 87 nM. Turning to `CC1c2c[nH]nc2N(Cc2ccccc2C(F)(F)F)C(=O)N1C1CCN(c2c(F)cccc2Cl)CC1` (single isomer, unassigned) [Example 350], the half-maximal inhibitory concentration (IC50) came out at 4 nM.

`COc1ncnc(OC)c1N1CCC(N2Cc3cn(C)nc3N(Cc3ccccc3C(F)(F)F)C2=O)CC1` [Example 100]: the IC50 was 339 nM.

In the case of `COc1nccc(C)c1N1CCC(N2C(=O)N(Cc3ccccc3C(F)(F)F)c3cn(C)nc3C2C)CC1` (single isomer, unassigned) [Example 298], the IC50 was determined as 29 nM.

Consider `Cc1cccc(F)c1N1CCC(N2Cc3cn(C[C@@H]4CC(F)(F)CN4C(=O)OC(C)(C)C)nc3N(Cc3ccccc3C(F)(F)F)C2=O)CC1` [Example 109], for which the IC50 was 27 nM. With `Cc1cccc(F)c1N1CCC(N2Cc3cn(C[C@H]4CCN4C(=O)OC(C)(C)C)nc3N(Cc3ccccc3C(F)(F)F)C2=O)CC1` [Example 129], the IC50 turned out to be 20 nM. To `Cc1cccc(F)c1N1CCC(N2Cc3nn(C(C)(C)C)cc3N(Cc3ccccc3C(F)(F)F)C2=O)CC1` [Example 183] belongs 22 nM; to `Cc1cccc(F)c1N1CCC(N2Cc3cn(C4CN(CC(F)F)C4)nc3N(Cc3ccccc3C(F)(F)F)C2=O)CC1` [Example 106], 24 nM. `COc1nccc(Cl)c1N1CCC(N2C(=O)N(Cc3ccccc3C(F)(F)F)c3nn(C)cc3C2C)CC1` (single isomer, unassigned) [Example 377]: the IC50 worked out at 552 nM. For `CC1c2cn(C)nc2N(Cc2ccccc2C(F)(F)F)C(=O)N1C1CCN(c2c(F)cccc2Cl)CC1` (single isomer, unassigned) [Example 319], the IC50 worked out at 2 nM. As for `Cc1cccc(F)c1N1CCC(N2Cc3cn(C4CN(C(=O)C(C)C)C4)nc3N(Cc3ccccc3C(F)(F)F)C2=O)CC1` [Example 131], the IC50 stood at 100 nM. To `CC1c2cn(C)nc2N(Cc2ccccc2C2CC2)C(=O)N1C1CCN(c2c(F)cccc2Br)CC1` (single isomer, unassigned) [Example 384] belongs 12 nM; to `Cc1cccc(F)c1N1CCC(N2Cc3c(cnn3CC(C)(C)F)N(Cc3ccccc3C(F)(F)F)C2=O)CC1` [Example 177], 48 nM; to `CCc1cccc(F)c1N1CCC(N2Cc3cn(C)nc3N(Cc3ccccc3C(F)(F)F)C2=O)CC1` [Example 299], 402 nM.

For the compound `Cc1cccc(F)c1N1CCC(N2C(=O)N(Cc3ccccc3C3CC3)c3cn(C4CC4)nc3C2C)CC1` (single isomer, unassigned) [Example 278], the IC50 is 492 nM.

Regarding `Cc1cccc(F)c1N1CCC(N2Cc3cn(C)nc3N(Cc3ncccc3C(F)(F)F)C2=O)CC1` [Example 22], the IC50 stood at 10 nM.
